Data set [1] can be described thus: Single-dose acute toxicity (MTD) and histopathology. The note with it: in vivo. How it is done: The tissues of three surviving mice were analyzed along with the tissues of three animals treated with the vehicle alone. […] Based on these findings, the maximum tolerated dose (MTD) value was determined to be 1,500 mg/kg.
The maximum tolerated dose (MTD) determination was performed using 8- to 10-week-old C57BL/6 female mice in five groups of 6 animals each. The mice were acclimated to the study room for a week. Animals were randomized by body weight prior to being assigned to dosage groups at the outset of the study. […] Following an up-down dosing strategy, the clinical signs and body weights of the animals in a study group were evaluated daily for 5 days before escalating or reducing the dose administered to the next group, as appropriate. The clinical observations included posture, vocalization, ease of handling, lacrimation, chromodacryorrhea, salivation, coat appearance, rearing frequency, transfer arousal, piloerection, motor movements, tail pinch, and diarrhea.
The histopathology examination included 3 mice that survived treatment with the 2,000-mg/kg dose and 3 mice that received the vehicle alone. Brain, heart, lung, spleen, and liver tissues were examined. Formalin-fixed tissues were embedded in paraffin to produce 4-μm-thick sections. The paraffin wax was removed, and the tissues were stained with Gill’s hematoxylin for 5 to 10 min. The samples were rinsed in tap water, followed by ammonia water, and stained with eosin Y for 5 min. The hematoxylin-eosin-stained tissues were dehydrated and mounted for light microscopic examination.

The nature of data set [2]: Plasma pharmacokinetics in mice. The class given is in vivo, C57BL/6 female mice. On the procedure:
The mean plasma concentration-time profiles for intravenous (i.v.) and per os (p.o.) administration in C57BL/6 female mice are shown in Fig. 6A. […] In contrast, at the earliest time point (15 min) following oral administration of a 6.6-mg/kg bolus, the plasma concentration reached a maximum of ∼92 ng/ml and then decreased gradually and remained detectable for 8 h.
Plasma intravenous (i.v.) and per os (p.o.) pharmacokinetic studies were performed in C57BL/6 female mice, using two groups of three mice each. […] The second group of mice received a 6.6-mg/kg dose orally; this dose matched the therapeutic dose that cured giardiasis with no remaining proliferating trophozoites. Blood samples were withdrawn at 5, 15, and 30 min and 1, 2, 4, 8, and 24 h after administration for the i.v. treated mouse group and at the same time intervals but beginning at 15 min for the p.o. treated mouse group. The samples were extracted with 60% water-diluted acetonitrile and were frozen at −20°C until analysis.
Blank and test compound-containing samples were thawed, vortexed to ensure complete mixing of the contents, and centrifuged at 4,000 rpm at 20°C for 10 min. The supernatants were transferred into autoinjector vials. The vials were loaded, and 30-μl sample volumes were injected onto an API 4000 LC-MS/MS system. The Agilent XDB C18 column was used for the liquid chromatographic step at a flow rate of 0.6 ml/min. The mass spectrometer was operated in the electrospray ionization-positive mode. Curcumin served as an internal standard. The chromatograms were evaluated using Analyst (version 1.6.3) software.

In data set [3] the test system is G. lamblia GS trophozoites. Set-up: method as in PMID 21078930, PMID 25267663. The note with it: read-out: IC50 against assemblage B GS strain; cited from earlier work.
Data set [4] relates to G. lamblia GS trophozoites. Set-up: method as in PMID 25267663. The note with it: proliferation assay; cited from earlier work.
For data set [5], the system named is G. lamblia WB trophozoites. Set-up: method as in PMID 21078930, PMID 25267663. The note with it: read-out: IC50 against assemblage A WB strain; cited from earlier work.
The nature of data set [6]: Accelerated temperature/humidity degradation test. The class given is physicochemical. The note with it: day 28, 37°C; for Mean ± SE degradation at 4 wk and 37°C, 75% humidity: 75% relative humidity; for Mean ± SE degradation at 4 wk and 37°C, uncontrolled humidity: uncontrolled relative humidity. On the procedure: Accelerated temperature tests were performed at 37°C and under 75% relative humidity or laboratory uncontrolled relative humidity, comparing compounds 3 and 9 to fumagillin. Sanofi reported previously that fumagillin degraded from 98% to 85% purity when stored at 40°C for 2 weeks at ambient humidity ([42]).
For accelerated temperature degradation tests at 75% relative humidity and at laboratory uncontrolled relative humidity, fumagillin and compounds 3 and 9 were incubated at 37°C under either controlled or uncontrolled humidity, and the samples were analyzed by HPLC every week for 4 weeks. Measurements were made in duplicate. Area-under-the-curve values were calculated to derive the percentage of compound remaining. For pH degradation, the compounds were dissolved in DMSO and mixed with pH 3.0 buffer. The samples were incubated at 25°C for up to 48 h. Samples were analyzed by HPLC every 2 h for the first 8 h and then after 24 and 48 h.

Data set [7] relates to G. lamblia WB trophozoites. Set-up: method as in PMID 25267663. The note with it: proliferation assay; cited from earlier work.

≈ marks a conversion by molar mass, not a printed value.

In data set [1] (female, C57BL/6, mouse, po), `CO[C@@H]1[C@H](OC(=O)Nc2ccc(C(=O)O)cc2)CC[C@]2(CO2)[C@H]1[C@@]1(C)O[C@@H]1CC=C(C)C` [Compound 9, 4-(((((3R,4S,5S,6R)-5-methoxy-4-((2R,3R)-2-methyl-3-(3-methylbut-2-en-1-yl)oxiran-2-yl)-1-oxaspiro[2.5]octan-6-yl)oxy)carbonyl)amino)benzoic acid] came in with an LD50 at 5 days of more than 2000 mg/kg and an MTD at 5 days of 1500 mg/kg. In addition, in data set [1] (mouse), the “histopathology of liver, heart, brain, lung, spleen” value is given as “normal tissue with no significant changes compared with the control tissues”; the mortality entry was “two mice died unexpectedly”; the “reduced body weight on day 3” value is given as approximately 15%; the “weight change and clinical signs” value is “no weight change and no negative clinical signs”. Further, the “time plasma concentration remained detectable” value in data set [2] (6.6 mg/kg oral bolus) was determined as 8 h. Further, the maximum plasma concentration in data set [2] (6.6 mg/kg oral bolus, C57BL/6 female mice) is approximately 92 ng/mL. For the same molecule, the “time point of maximum plasma concentration” value in data set [2] (6.6 mg/kg oral bolus, earliest time point) is given as 15 min. Also, the half-life in data set [2] (mouse, iv, 2 mg/kg i.v., plasma, C57BL/6 female mice, read-out: calculated half-life) was 7.2 min. Besides, the concentration at 5 min in data set [2] (mouse, plasma, intravenous, 2 mg/kg i.v. bolus, C57BL/6 female mice, read-out: plasma concentration at the 5-min time point) is approximately 136 ng/mL. The concentration at 1 h in data set [2] (mouse, plasma, intravenous, 2 mg/kg i.v. bolus, C57BL/6 female mice, read-out: plasma concentration by 1 h after dosing (below limit of quantification)) was less than 5 ng/mL.

Turning to `CO[C@@H]1[C@H](OC(=O)/C=C/C=C/C=C/C=C/C(=O)O)CC[C@]2(CO2)[C@H]1[C@@]1(C)O[C@@H]1CC=C(C)C` [Fumagillin, reference compound], the values for the IC50 in data set [3] and in data set [5] were 2 nM and 10 nM, respectively. The “MLC, GS strain” value in data set [4] was 0.26 µM (≈ 0.119 µg/mL). Also, the “Mean ± SE degradation at 4 wk and 37°C, 75% humidity” value in data set [6] was found to be 30.37 ± 1.12%; in data set [6] (listed as fumagillin), 30.37%. Moreover, the “Mean ± SE degradation at 4 wk and 37°C, uncontrolled humidity” value in data set [6] was found to be 20.22 ± 3.90%; in data set [6] (listed as fumagillin) it was 20.22%. In addition, the “MLC, WB strain” value in data set [7] was 0.7 µM (≈ 0.321 µg/mL).

These data come from article PMC7508583, “Discovery and Preclinical Development of Antigiardiasis Fumagillol Derivatives” (Antimicrobial Agents and Chemotherapy, 2020).
